Assay results reported in patent US20220142958A1, “MEDICINAL COMPOSITION HAVING EXCELLENT STABILITY” (EA Pharma Co., Ltd., priority 2019, published 2022).

Tests used:
Type in all cases: in vivo, rat
serum iPTH concentration = experiment: Serum iPTH concentration in bilaterally nephrectomized rats after single intravenous administration
Description: (§1) After quarantine and acclimatization periods of 6 days, fifty-one rats (Crl: CD (SD), male) aged 7 weeks were fed a 100% sucrose diet ad libitum from four days before the surgery. On the day of the surgery, skin incisions were made on the back at the sites of the right and left kidneys under isoflurane anesthesia and the renal capsules were removed to ligate the renal arteries and veins and the ureters using threads before removing the right and left kidneys. A penicillin solution was given upon suturing, and 5 mL of physiological saline was intraperitoneally administered before returning the rats into the breeding cages.
(§2) On the day of administering the test substance, for example, a day after the bilaterally nephrectomy, approximately 100 μL of blood was collected from the tail vein without anesthesia using a capillary tube, which was centrifuged in a high speed refrigerated microcentrifuge (10,000 rpm, 5 min, 4° C.) to separate the serum. Thereafter, the serum Ca concentration was measured with a dri-chemanalyzer (model number: FUJI DRI-CHEM 7000, manufacturer: FUJI FILM Medical Co., Ltd.) to select individuals with a serum Ca concentration of 8.0 mg/dL or more and less than 14.0 mg/dL.
(§3) On a day after the bilaterally nephrectomy, the given doses were calculated based on the weight of the selected animals on that day. Group 1 was given a medium (physiological saline), Groups 2, 3 and 4 were given the Compound A1 solution (0.3, 3 and 30 mg/mL, respectively), and Groups 5, 6, 7 and 8 (5 rats per group) were given the comparative compound (0.3, 1, 3 and 10 mg/mL, respectively), each given a single dose of 1 ml/kg from the tail vein. Prior to the administration (0 hours), and 24 and 48 hours after the administration, approximately 300 μL of blood was collected without anesthesia from the tail vein using capillary tubes for obtaining the serum. The blood for obtaining the serum was left to stand at room temperature, and centrifuged in a high speed refrigerated microcentrifuge (10,000 rpm, 5 min, 4° C.) within a period of 30 minutes to 2 hours after the blood collection to collect the serum.
(§4) Thereafter, the serum Ca was analyzed with COBAS analyzer (Model number: COBAS INTEGRA 400 plus, manufacturer: Roche Diagnostics K.K.), and the remaining serum was stored in an ultra-low freezer (temperature set to −80±15° C.) until the day of iPTH measurement. On the day of iPTH measurement, the serum was melted at room temperature for measurement.
(§5) A 30 mg/ml Compound A1 solution ([…] of Compound A1 dissolved in 10 ml of physiological saline) was diluted with physiological saline to prepare 0.3 mg/ml and […] Compound A1 solutions.
(§6) 149 mg of etelcalcetide (Ac-c(C) arrrar-NH2) TFA salt (WO 2011/014707 A) was prepared to have pH of 6 to 8 with 7 ml of physiological saline and a 0.5N aqueous NaOH solution, and physiological saline was further added thereto to make 10 ml. The prepared 10 mg/ml comparative compound solution was diluted with physiological saline to obtain 0.3 mg/ml and 1 mg/ml comparative compound solutions.

serum Ca concentration = experiment: Serum Ca concentration in bilaterally nephrectomized rats after single intravenous administration
Description: as §1, §2, §3, §4, §5, §6

[1] = Estimated plasma concentration in bilaterally nephrectomized rats; settings: 48 hours after single intravenous administration at 3 mg/kg
[2] = tested on: bilaterally nephrectomized rats; experiment: Survival of bilaterally nephrectomized rats after single doses; settings: for number of rats surviving (of five per group): 48 hours after the administration
Description: as §1, §3

[3] = 0.3 mg/kg single i.v., 24 hours after the administration
[4] = 0.3 mg/kg single i.v., 48 hours after the administration
[5] = 1 mg/kg single i.v., 24 hours after the administration
[6] = 1 mg/kg single i.v., 48 hours after the administration
[7] = 3 mg/kg single i.v., 24 hours after the administration
[8] = 3 mg/kg single i.v., 48 hours after the administration
[9] = 10 mg/kg single i.v., 24 hours after the administration
[10] = 10 mg/kg single i.v., 48 hours after the administration (n=1)
[11] = logistic curve fitting, 48 hours after the administration vs given dose

`CC(=O)N[C@H](CSSC[C@H](N)C(=O)O)C(=O)N[C@H](C)C(=O)N[C@H](CCCNC(=N)N)C(=O)N[C@H](CCCNC(=N)N)C(=O)N[C@H](CCCNC(=N)N)C(=O)N[C@H](C)C(=O)N[C@H](CCCNC(=N)N)C(N)=O` [comparative compound, etelcalcetide] showed a mean serum iPTH concentration (serum iPTH concentration; [3]) of 122 pg/mL, a mean serum iPTH concentration (serum iPTH concentration; [4]) of 510 pg/mL and a mean serum iPTH concentration (serum iPTH concentration; [5]) of 52 pg/mL. It also gave a mean serum iPTH concentration (serum iPTH concentration; [6]) of 280 pg/mL, a mean serum iPTH concentration (serum iPTH concentration; [7]) of 22 pg/mL and a mean serum iPTH concentration (serum iPTH concentration; [8]) of 41 pg/mL. The mean serum iPTH concentration (serum iPTH concentration; [9]) was 104 pg/mL, the mean serum iPTH concentration (serum iPTH concentration; [10]) was 230 pg/mL and the “lower limit value of the serum iPTH concentration (simulated)” value (serum iPTH concentration; [11]) was 48.18 pg/mL. The “50% effective concentration, EC50 value, for decreasing the serum iPTH concentration” value (serum iPTH concentration; plasma concentration, rats) was 0.04 µg/mL, the “decrease of serum iPTH and Ca concentrations” value (serum iPTH concentration; renal failure rat models, during 48 hours after the administration, relation to dose) was “in a dose-dependent manner” and the “mean serum Ca concentration” value (serum Ca concentration; [3]) was 8.33 mg/dL. The “mean serum Ca concentration” value (serum Ca concentration; [4]) was 10.44 mg/dL, the “mean serum Ca concentration” value (serum Ca concentration; [5]) was 6.42 mg/dL and the “mean serum Ca concentration” value (serum Ca concentration; [6]) was 7.33 mg/dL. For the same compound, the “mean serum Ca concentration” value (serum Ca concentration; [7]) was 6.82 mg/dL, the “mean serum Ca concentration” value (serum Ca concentration; [8]) was 5.85 mg/dL and the “mean serum Ca concentration” value (serum Ca concentration; [9]) was 6.95 mg/dL. The “mean serum Ca concentration” value (serum Ca concentration; [10]) was 6.65 mg/dL, the “lower limit value of the serum Ca concentration (simulated)” value (serum Ca concentration; [11]) was 5.880 mg/dL and the “plasma concentration (estimated)” value [1] was 130 ng/mL. For the same compound, the “number of rats surviving (of five per group)” value ([2]; 3 mg/kg group) was “four”, the “number of rats surviving (of five per group)” value ([2]; 10 mg/kg group) was “one” and the “number of dead rats” value ([2]; relation to dose) was “increased in a dose-dependent manner”.
